Experimental data reported in paper PMC6645578 (ACS Omega, 2017).
Where two headings read alike, the source gives them in different places.

Columns and labels:
EstSP1 [1] = assay: p-nitrophenol release at […] nm, Lineweaver-Burk; format: biochemical, Sphingomonas sp. PAMC 26605; conditions: 40 °C; 0.1-0.5 mM substrate; 3 min; Table 3 and text print 92.5
EstSP1 [2] = conditions: 40 °C; 0.1-0.5 mM substrate; 3 min; text prints 247

CCCC(=O)Oc1ccc([N+](=O)[O-])cc1 [p-nitrophenyl butyrate]
Km (EstSP1 [1]): 92 ± 1.2 µM | Km (EstSP1 [2]): 249 ± 7.8 µM
